Results from patent publication US10738056B2 (Aduro BioTech, Inc., priority 2017, dated 2020).

Key:
[1] = biological target: Human cGAS amino acids 155-522 (Homo sapiens (Human), UniProt Q8N884); experiment: cGAS biochemical activity assay (ATP remaining, Kinase-Glo Max luminescence); conditions: human cGAS 155-522, ATP remaining (Kinase-Glo Max); read-out: cGAS IC50
[2] = tested on: cGAS/STING pathway in THP1 cells; experiment: THP1 cell-based cGAS/STING pathway activity assay (IRF-3-linked luciferase reporter); conditions: Homo sapiens, THP-1
Description: A cellular assay can be used to assess the compounds of the invention for their ability to inhibit the cGAS/STING pathway. Cells that express a luciferase-based reporter that is linked to IRF-3 activation are used to determine response as a function of compound concentration. Such an assay is described in Vincent et al., Nature Communications 2017, 8(1):750, doi: 10.1038/s41467-017-00833-9.
A cellular assay can be used to assess the compounds of the invention for their ability to inhibit the cGAS/STING pathway. Cells that express a luciferase-based reporter that is linked to IRF-3 activation are used to determine response as a function of compound concentration. Such an assay is described in Vincent et al., Nature Communications 2017, 8(1):750, doi: 10.1038/s41467-017-00833-9. Compounds of the invention were assessed using similar assay methods in a THP1 cell assay to generate IC50 values as provided in the following Table 16. In this table, activity level “A” indicates an IC50 value less than 20 μM, “B” indicates an IC50 value between 20 and 100 μM, and “C” indicates an IC50 value above the upper limit of the assay (100 μM), or where an IC50 value could not be generated from the data.

Sequence of Human cGAS amino acids 155-522 (Q8N884 157-522): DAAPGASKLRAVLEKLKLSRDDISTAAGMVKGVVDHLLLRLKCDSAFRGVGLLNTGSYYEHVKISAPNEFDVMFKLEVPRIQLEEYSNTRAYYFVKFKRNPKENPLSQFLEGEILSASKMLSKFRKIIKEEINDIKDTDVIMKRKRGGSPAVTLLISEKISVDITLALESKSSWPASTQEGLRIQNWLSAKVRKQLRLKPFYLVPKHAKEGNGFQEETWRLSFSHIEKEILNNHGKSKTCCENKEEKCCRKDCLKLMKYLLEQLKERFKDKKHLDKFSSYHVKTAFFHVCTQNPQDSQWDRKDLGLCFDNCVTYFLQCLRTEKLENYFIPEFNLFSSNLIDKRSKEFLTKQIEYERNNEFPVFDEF

Compound	IC50 [1]	IC50 [2]
Cc1[nH]c2c(-c3ccccc3)c(C(F)(F)F)nn2c(=O)c1-c1nc2ccccc2[nH]1 [Compound C1005, 6-(1H-benzo[d]imidazol-2-yl)-5-methyl-3-phenyl-2-(trifluoromethyl)pyrazolo[1,5-a]pyrimidin-7(4H)-one]	20 to 250 µM	> 100 µM
Cc1[nH]c2c(-c3ccccc3)c(C(F)(F)F)nn2c(=O)c1-c1nnc(C2(C)CCCC2)o1 [Compound D1023, 5-methyl-6-(5-(1-methylcyclopentyl)-1,3,4-oxadiazol-2-yl)-3-phenyl-2-(trifluoromethyl)pyrazolo[1,5-a]pyrimidin-7(4H)-one]	< 20 µM	> 100 µM
COc1ccnc(NC(=O)c2c(C)[nH]c3c(-c4ccccc4)c(C(F)(F)F)nn3c2=O)n1 [Compound A1104, N-(4-methoxypyrimidin-2-yl)-5-methyl-7-oxo-3-phenyl-2-(trifluoromethyl)-4,7-dihydropyrazolo[1,5-a]pyrimidine-6-carboxamide]	< 20 µM	20 to 100 µM
Cc1[nH]c2c(-c3ccccc3)c(C(F)(F)F)nn2c(=O)c1-c1nnc(C2CCCO2)o1 (stereo not shown) [Compound D1012, 5-methyl-3-phenyl-6-(5-(tetrahydrofuran-2-yl)-1,3,4-oxadiazol-2-yl)-2-(trifluoromethyl)pyrazolo[1,5-a]pyrimidin-7(4H)-one]	< 20 µM	> 100 µM
Cc1[nH]c2c(-c3ccccc3)c(C(F)(F)F)nn2c(=O)c1C(=O)NS(C)(=O)=O [Compound A1117, 5-methyl-N-(methylsulfonyl)-7-oxo-3-phenyl-2-(trifluoromethyl)-4,7-dihydropyrazolo[1,5-a]pyrimidine-6-carboxamide]	20 to 250 µM	> 100 µM
Cc1nc(NC(=O)c2c(C)[nH]c3c(-c4ccccc4)c(C(F)(F)F)nn3c2=O)oc1C [Compound A1056, N-(4,5-dimethyloxazol-2-yl)-5-methyl-7-oxo-3-phenyl-2-(trifluoromethyl)-4,7-dihydropyrazolo[1,5-a]pyrimidine-6-carboxamide]	< 20 µM	20 to 100 µM
Cc1[nH]c2c(-c3ccccc3)c(C(F)(F)F)nn2c(=O)c1-c1nnc(N2CCCCC2)o1 [Compound D1020, 5-methyl-3-phenyl-6-(5-(piperidin-1-yl)-1,3,4-oxadiazol-2-yl)-2-(trifluoromethyl)pyrazolo[1,5-a]pyrimidin-7(4H)-one]	< 20 µM	> 100 µM
Cc1[nH]c2c(-c3ccccc3)c(C(F)(F)F)nn2c(=O)c1C(=O)Nc1ccc(S(C)(=O)=O)nc1 [Compound A1113, 5-methyl-N-(6-(methylsulfonyl)pyridin-3-yl)-7-oxo-3-phenyl-2-(trifluoromethyl)-4,7-dihydropyrazolo[1,5-a]pyrimidine-6-carboxamide]	20 to 250 µM	> 100 µM
Cc1[nH]c2c(-c3ccccc3)c(C(F)(F)F)nn2c(=O)c1-c1nc2c(o1)CCCC2O (stereo not shown) [Compound C1052, 6-(4-hydroxy-4,5,6,7-tetrahydrobenzo[d]oxazol-2-yl)-5-methyl-3-phenyl-2-(trifluoromethyl)pyrazolo[1,5-a]pyrimidin-7(4H)-one]	< 20 µM	20 to 100 µM
COc1ccccc1NC(=O)Cc1c(C)[nH]c2c(-c3ccccc3)c(C(F)(F)F)nn2c1=O [Compound B1010, N-(2-methoxyphenyl)-2-(5-methyl-7-oxo-3-phenyl-2-(trifluoromethyl)-4,7-dihydropyrazolo[1,5-a]pyrimidin-6-yl)acetamide]	20 to 250 µM	20 to 100 µM
Cc1[nH]c2c(-c3ccccc3)c(C(F)(F)F)nn2c(=O)c1C(=O)Nc1cccc2c1CCO2 [Compound A1102, N-(2,3-dihydrobenzofuran-4-yl)-5-methyl-7-oxo-3-phenyl-2-(trifluoromethyl)-4,7-dihydropyrazolo[1,5-a]pyrimidine-6-carboxamide]	< 20 µM	> 100 µM
Cc1[nH]c2c(-c3ccccc3)c(C(F)(F)F)nn2c(=O)c1-c1nnc(-c2nccc(O)n2)o1 [Compound D1078, 6-(5-(4-hydroxypyrimidin-2-yl)-1,3,4-oxadiazol-2-yl)-5-methyl-3-phenyl-2-(trifluoromethyl)pyrazolo[1,5-a]pyrimidin-7(4H)-one]	< 20 µM	> 100 µM
COCc1[nH]c2c(-c3ccccc3)c(C#N)nn2c(=O)c1-c1nc2c(OC)nccc2o1 [Compound C1246, 5-(methoxymethyl)-6-(4-methoxyoxazolo[4,5-c]pyridin-2-yl)-7-oxo-3-phenyl-4,7-dihydropyrazolo[1,5-a]pyrimidine-2-carbonitrile]	< 20 µM	> 100 µM
Cc1[nH]c2c(-c3ccccc3)c(C(F)(F)F)nn2c(=O)c1-c1nnc([C@H]2CCCOC2)o1 [Compound D1025, (S)-5-methyl-3-phenyl-6-(5-(tetrahydro-2H-pyran-3-yl)-1,3,4-oxadiazol-2-yl)-2-(trifluoromethyl)pyrazolo[1,5-a]pyrimidin-7(4H)-one]	< 20 µM	20 to 100 µM

Now from value to compound:

IC50 [1]	IC50 [2]	Compound
< 20 µM	20 to 100 µM	COc1cc(CO)cc2oc(-c3c(C)[nH]c4c(-c5ccccc5)c(C(F)(F)F)nn4c3=O)nc12 [Compound C1166, 6-(6-(hydroxymethyl)-4-methoxybenzo[d]oxazol-2-yl)-5-methyl-3-phenyl-2-(trifluoromethyl)pyrazolo[1,5-a]pyrimidin-7(4H)-one]
< 20 µM	> 100 µM	Cc1[nH]c2c(-c3ccccc3)c(C(F)(F)F)nn2c(=O)c1-c1nc2c(OC(C)C)cccc2o1 [Compound C1039, 6-(4-isopropoxybenzo[d]oxazol-2-yl)-5-methyl-3-phenyl-2-(trifluoromethyl)pyrazolo[1,5-a]pyrimidin-7(4H)-one]
< 20 µM	> 100 µM	COc1cc(CN)cc2oc(-c3c(C)[nH]c4c(-c5ccccc5)c(C(F)(F)F)nn4c3=O)nc12 [Compound C1135, 6-(6-(aminomethyl)-4-methoxybenzo[d]oxazol-2-yl)-5-methyl-3-phenyl-2-(trifluoromethyl)pyrazolo[1,5-a]pyrimidin-7(4H)-one]
< 20 µM	> 100 µM	COc1cc(C(=N)N)cc2oc(-c3c(C)[nH]c4c(-c5ccccc5)c(C(F)(F)F)nn4c3=O)nc12 [Compound C1141, 4-methoxy-2-(5-methyl-7-oxo-3-phenyl-2-(trifluoromethyl)-4,7-dihydropyrazolo[1,5-a]pyrimidin-6-yl)benzo[d]oxazole-6-carboximidamide]
< 20 µM	> 100 µM	COc1cc([N+](C)(C)C)cc2oc(-c3c(C)[nH]c4c(-c5ccccc5)c(C(F)(F)F)nn4c3=O)nc12 [Compound C1163, 4-methoxy-N,N,N-trimethyl-2-(5-methyl-7-oxo-3-phenyl-2-(trifluoromethyl)-4,7-dihydropyrazolo[1,5-a]pyrimidin-6-yl)benzo[d]oxazol-6-aminium]
< 20 µM	20 to 100 µM	COc1cccc2oc(-c3c(COCCO)[nH]c4c(-c5ccccc5)c(C(F)(F)F)nn4c3=O)nc12 [Compound C1226, 5-((2-hydroxyethoxy)methyl)-6-(4-methoxybenzo[d]oxazol-2-yl)-3-phenyl-2-(trifluoromethyl)pyrazolo[1,5-a]pyrimidin-7(4H)-one]
< 20 µM	> 100 µM	COc1cccc2oc(-c3c(C(=O)NCC(=O)O)[nH]c4c(-c5ccccc5)c(C(F)(F)F)nn4c3=O)nc12 [Compound C1195, (6-(4-methoxybenzo[d]oxazol-2-yl)-7-oxo-3-phenyl-2-(trifluoromethyl)-4,7-dihydropyrazolo[1,5-a]pyrimidine-5-carbonyl)glycine]
< 20 µM	< 20 µM	Cc1[nH]c2c(-c3ccccc3)c(C(F)(F)F)nn2c(=O)c1-c1nc2c(N(C)C)cccc2o1 [Compound C1078, 6-(4-(dimethylamino)benzo[d]oxazol-2-yl)-5-methyl-3-phenyl-2-(trifluoromethyl)pyrazolo[1,5-a]pyrimidin-7(4H)-one]
< 20 µM	< 20 µM	Cc1[nH]c2c(-c3ccccc3)c(C(F)(F)F)nn2c(=O)c1-c1nc2c(Br)cccc2o1 [Compound C1040, 6-(4-bromobenzo[d]oxazol-2-yl)-5-methyl-3-phenyl-2-(trifluoromethyl)pyrazolo[1,5-a]pyrimidin-7(4H)-one]
< 20 µM	< 20 µM	C=Cc1nn2c(=O)c(-c3nc4c(OC)cccc4o3)c(C)[nH]c2c1-c1ccccc1 [Compound C1241, 6-(4-methoxybenzo[d]oxazol-2-yl)-5-methyl-3-phenyl-2-vinylpyrazolo[1,5-a]pyrimidin-7(4H)-one]
< 20 µM	> 100 µM	COc1cccc2oc(-c3c(C(N)=O)[nH]c4c(-c5ccccc5)c(C(F)(F)F)nn4c3=O)nc12 [Compound C1132, 6-(4-methoxybenzo[d]oxazol-2-yl)-7-oxo-3-phenyl-2-(trifluoromethyl)-4,7-dihydropyrazolo[1,5-a]pyrimidine-5-carboxamide]
< 20 µM	< 20 µM	COc1cccc2oc(-c3c(C(=O)Nc4cn[nH]c4)[nH]c4c(-c5ccccc5)c(C(F)(F)F)nn4c3=O)nc12 [Compound C1244, 6-(4-methoxybenzo[d]oxazol-2-yl)-7-oxo-3-phenyl-N-(1H-pyrazol-4-yl)-2-(trifluoromethyl)-4,7-dihydropyrazolo[1,5-a]pyrimidine-5-carboxamide]
